Laboratory results published in patent US6613761B1, “Benzoxazepine compounds, their production and use” (Takeda Chemical Industries, Ltd., priority 1995, dated 2003).

Key:
[1] = target: T1, squalene synthetase (Homo sapiens, UniProt P37268); experiment: Squalene synthetase inhibitory activity (human-derived enzyme prepared from HepG2 cells); type: biochemical; details: [1-3H] farnesyl pyrophosphate, 37° C., 45 minutes, read-out: Inhibitory Activity (IC50, 10^−9 M)
T1 construct: This suspension was used as the enzyme solution; endogenous in cells; host or cells: HepG2 human hepatic carcinoma cells; membrane fraction (105000×g sediment) of the sonicate
T1 sequence (P37268 1-417): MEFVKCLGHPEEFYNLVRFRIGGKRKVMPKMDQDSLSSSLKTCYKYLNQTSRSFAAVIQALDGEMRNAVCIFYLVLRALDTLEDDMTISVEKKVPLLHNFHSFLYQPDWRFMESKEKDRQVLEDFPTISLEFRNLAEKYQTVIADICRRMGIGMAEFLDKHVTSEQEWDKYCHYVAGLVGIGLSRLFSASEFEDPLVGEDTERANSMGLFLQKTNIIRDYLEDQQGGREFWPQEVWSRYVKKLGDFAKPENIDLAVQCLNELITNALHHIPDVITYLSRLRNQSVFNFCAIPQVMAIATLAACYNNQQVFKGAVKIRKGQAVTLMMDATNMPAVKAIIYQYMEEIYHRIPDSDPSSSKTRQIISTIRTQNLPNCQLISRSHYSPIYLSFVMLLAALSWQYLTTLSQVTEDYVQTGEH
Protocol: The squalene synthetase inhibitory activity was assayed as follows with the enzyme solutions prepared in accordance with the method described below.
More specifically, an enzyme solution (protein content 0.8 μg) prepared in accordance with the method described below was added to a solution (total volume 50 μl)) containing 5 μM [1-^3H] farnesyl pyrophosphate (specific activity 25 μCi/mole), 1 mM NADPH (nicotinamide adenine dinucleotide phosphate of reduced type), 5 mM MgCl2, 6 mM glutathione, a 100 mM buffer solution of potassium phosphate (pH 7.4) and a test drug (used as an aqueous solution or a DMSO solution), then the reaction was allowed to proceed at 37° C. for 45 minutes. To the reaction mixture was added 150 μl of a mixture of chloroform and methanol (1:2) to suspend the reaction, followed by adding 50 Al of chloroform and 50 μl of a 3N solution of sodium hydroxide. 50 μl of the chloroform layer (lower layer) containing the reaction mixture having squalene as the principal component and 3 ml of toluene-based liquid scintillator were mixed, and its radioactivity was determined by means of a liquid scintillation counter.
The squalene synthetase inhibitory activity was expressed in terms of the concentration inhibiting by 50% the radioactivity taken into the chloroform layer (IC50, molar concentration (M)), as shown in Table 7. Preparation of human-derived enzyme
Human hepatic carcinoma cells HepG2 (about 1×10^9 cells) obtained by incubation on a Dulbecco-modified Eagle's medium (37° C. in the presence of 5% CO2) containing 10% fetal bovine serum were suspended in 10 ml of an ice-cooled buffer solution (100 mM potassium phosphate buffer (pH 7.4), 30 mM nicotinamide and 2.5 mM MgCl2]. The cells were crashed by means of ultrasonication (for 30 seconds, twice). The sonicate thus obtained was subjected to centrifugation for 20 minutes (4° C.) with 10000×g. The supernatant layer was subjected to further centrifugation for 90 minutes (4° C.) with 105000×g. The sediment was then suspended in an ice-cooled 100 mM potassium phosphate buffer (pH 7.4), which was again subjected to centrifugation for 90 minutes (4° C.) with 105000×g. This fraction was suspended in an ice-cooled 100 mM potassium phosphate buffer solution (pH 7.4) (about 4 mg/ml protein concentration). This suspension was used as the enzyme solution.

[2] = test system: Cholesterol biosynthesis in the liver; experiment: Assay of cholesterogenesis in the liver; type: in vivo; details: Wistar fatty rats, liver total sterol radioactivity from 14C sodium acetate
Protocol: Cholesterol biosynthesis in the liver of a rat was assayed as follows. Six-week old Wistar fatty rats were given orally a test compound [Compound 4-2 (suspended in a 0.5% methyl cellulose solution)], while the control group was orally given only a 0.5% methyl cellulose solution. One hour later, sodium acetate labelled with radioisotope ^14C (manufactured by Amasham) was given intravenously at the tail (10 μCi/0.3 ml physiological saline/rat). One hour layer, rats were sacrificed by decapitation, and 1.5 g of the first lobe of the liver was removed, which was saponified by immersing in 3.9 ml of an alkaline ethanol solution (KOH:EtOH=1:2) at 100° C. for two hours, followed by extraction with 5 ml each portion of petroleum ether three times. The extract solution was dried, which was dissolved in 3 ml of ethanol:acetone (1:1). To the solution was added 2 ml of a 0.5% digitonin-ethanol solution. The mixture was left standing for one hour. Resulting precipitates were collected as total sterol, and the radioactivity was measured by means of a liquid scintillation counter.

IC50 [1] [nM]	melting point [°C]	SMILES	Cholesterogenesis inhibitory rate (%) ([2]; 0.6 mg/kg given orally)	Cholesterogenesis inhibitory rate (%) ([2]; 2.0 mg/kg given orally)
22	137 to 140	COc1cccc([C@H]2O[C@H](CC(=O)N3CCC(CC(=O)O)CC3)C(=O)N(CC(C)(C)C)c3ccc(Cl)cc32)c1OC [Compound 4-2, N-[(3R,5S)-7-chloro-5-(2,3-dimethoxyphenyl)-1-neopentyl-2-oxo-1,2,3,5-tetrahydro-4,1-benzoxazepine-3-acetyl]piperidine-4-acetic acid]	80.1	90.4
12	87 to 92	COc1cccc([C@H]2O[C@H](CC(=O)N[C@@H](CC(C)C)C(=O)O)C(=O)N(CC(C)(C)C)c3ccc(Cl)cc32)c1OC [Compound 4-30]	–	–
29	155 to 158	COc1cccc([C@H]2O[C@H](CC(=O)N3CCC(CCc4nnn[nH]4)CC3)C(=O)N(CC(C)(C)C)c3ccc(Cl)cc32)c1OC [Compound 25, 5-[2-[N-[(3R,5S)-7-chloro-5-(2,3-dimethoxyphenyl)-1-neopentyl-2-oxo-1,2,3,5-tetrahydro-4,1-benzoxazepine-3-acetyl]piperidin-4-yl]ethyl]1H(or 3H)-tetrazole]	–	–
14	122 to 124	COc1cccc([C@H]2O[C@H](CC(=O)NCC(O)CC(=O)O)C(=O)N(CC(C)(C)C)c3ccc(Cl)cc32)c1OC (stereo partly drawn) [Compound 4-24]	–	–
11	148 to 150	COc1cccc([C@H]2O[C@H](Cc3nnn[nH]3)C(=O)N(CC(C)(C)C)c3ccc(Cl)cc32)c1OC [Compound 7, (3R,5S)-7-Chloro-5-(2,3-dimethoxyphenyl)-1-neopentyl-1,2,3,5-tetrahydro-3-[1H(or 3H)-tetrazol-5-yl]methyl-4,1-benzoxazepin-2-one]	–	–
17	163 to 166	COc1cccc([C@H]2O[C@H](CC(=O)N3CCC(O)(CC(=O)O)CC3)C(=O)N(CC(C)(C)C)c3ccc(Cl)cc32)c1OC [Compound 4-20]	–	–
11	165 to 167	COc1cccc([C@H]2O[C@H](CC(=O)NCCC(=O)O)C(=O)N(CC(C)(C)C)c3ccc(Cl)cc32)c1OC [Compound 4-21]	–	–
11	152 to 155	COc1cccc([C@H]2O[C@H](CC(=O)N[C@@H](CCC(=O)O)C(=O)O)C(=O)N(CC(C)(C)C)c3ccc(Cl)cc32)c1OC [Compound 4-9]	–	–
